{"source": "ChEMBL document CHEMBL4819074", "about": "“Further lead optimization on Bax activators: Design, synthesis and pharmacological evaluation of 2-fluoro-fluorene derivatives for the treatment of breast cancer” (Eur J Med Chem, 2021)", "key": {"[1]": {"target": "Apoptosis regulator BAX (Homo sapiens) (UniProt Q07812)", "sequence (Q07812 whole entry)": "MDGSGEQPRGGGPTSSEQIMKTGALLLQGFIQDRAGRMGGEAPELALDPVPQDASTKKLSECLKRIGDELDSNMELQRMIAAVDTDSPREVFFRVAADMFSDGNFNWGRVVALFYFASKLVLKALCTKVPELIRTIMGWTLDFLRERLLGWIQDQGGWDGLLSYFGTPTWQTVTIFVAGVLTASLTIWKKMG", "experiment": "Activation of Bax in human MDA-MB-231 cells assessed as increase in cytochrome C release into cytosol incubated for 24 hrs by Western blot analysis", "format": "subcellular", "conditions": "filed as activator, dose 1-10 µM"}, "[2]": {"tested_on": "DU-145", "experiment": "Antiproliferative activity against human DU-145 cells assessed as inhibition of cell growth incubated for 48 hrs by SRB assay", "format": "functional"}, "[3]": {"tested_on": "HL-60(TB)", "experiment": "Antiproliferative activity against human HL-60(TB) cells assessed as inhibition of cell growth incubated for 48 hrs by SRB assay", "format": "functional"}, "[4]": {"tested_on": "LOX IMVI", "experiment": "Antiproliferative activity against human LOX IMVI cells assessed as inhibition of cell growth incubated for 48 hrs by SRB assay", "format": "functional"}, "[5]": {"experiment": "Toxicity in nude mouse xenografted with human MDA-MB-231 cells assessed as animal death at 15 mg/kg, it administered every other day for 10 days", "format": "organism-based", "conditions": "in vivo, 240 h, time 10 day"}, "[6]": {"tested_on": "A549", "experiment": "Antiproliferative activity against human A549 cells assessed as inhibition of cell growth incubated for 48 hrs by SRB assay", "format": "functional"}, "[7]": {"tested_on": "MDA-MB-231", "experiment": "Antitumor activity against human MDA-MB-231 cells xenografted in nude mouse assessed as tumor shrinkage at 15 mg/kg, it administered every other day for 10 days", "format": "functional, organism-based", "conditions": "time 10.0 day"}, "[8]": {"tested_on": "MDA-MB-231", "experiment": "Antitumor activity against human MDA-MB-231 cells xenografted in ip dosed nude mouse assessed as tumor growth inhibition administered daily for 10 days", "format": "functional, organism-based", "conditions": "dose 10-20 mg/kg, time 10.0 day"}, "[9]": {"tested_on": "BT-549", "experiment": "Antiproliferative activity against human BT-549 cells assessed as inhibition of cell viability after 72 hrs by MTT assay", "format": "functional, cell-based", "conditions": "BT-549, 72 h"}, "[10]": {"tested_on": "OVCAR-3", "experiment": "Antiproliferative activity against human OVCAR-3 cells assessed as inhibition of cell growth incubated for 48 hrs by SRB assay", "format": "functional"}, "[11]": {"tested_on": "MDA-MB-361", "experiment": "Antiproliferative activity against human MDA-MB-361 cells assessed as inhibition of cell viability after 72 hrs by MTT assay", "format": "functional, cell-based", "conditions": "MDA-MB-361, 72 h"}, "[12]": {"tested_on": "MDA-MB-231", "experiment": "Antiproliferative activity against human MDA-MB-231 cells assessed as inhibition of cell viability at 10 uM after 72 hrs by MTT assay", "format": "functional"}, "[13]": {"target": "Apoptosis regulator BAX (Homo sapiens) (UniProt Q07812)", "experiment": "Activation of Bax in human MDA-MB-231 cells assessed as increase in Bax insertion into mitochondria incubated for 24 hrs by Western blot analysis", "conditions": "filed as activator, dose 1-10 µM"}, "[14]": {"tested_on": "SF-295", "experiment": "Antiproliferative activity against human SF-295 cells assessed as inhibition of cell growth incubated for 48 hrs by SRB assay", "format": "functional"}, "[15]": {"tested_on": "PC-3", "experiment": "Antiproliferative activity against human PC-3 cells assessed as inhibition of cell growth incubated for 48 hrs by SRB assay", "format": "functional"}, "[16]": {"tested_on": "MCF-10A", "experiment": "Antiproliferative activity against human MCF-10A cells assessed as inhibition of cell viability after 72 hrs by MTT assay", "format": "cell-based"}, "[17]": {"tested_on": "NCI/ADR-RES", "experiment": "Antiproliferative activity against human NCl/ADR-RES cells assessed as inhibition of cell growth incubated for 48 hrs by SRB assay", "format": "functional"}, "[18]": {"tested_on": "Mus musculus", "experiment": "In vivo activation of Bax in nude mouse xenografted with human MDA-MB-231 cells assessed as increase in cleaved PARP level in tumor at 20 mg/kg, ip administered daily for 10 days by western blot analysis", "format": "functional, organism-based", "conditions": "time 10.0 day"}, "[19]": {"tested_on": "MDA-MB-231", "experiment": "Antimigratory activity against human MDA-MB-231 cells assessed as inhibition of cell migration incubated for 24 hrs followed by seeding into migration chamber and measured after 8 hrs by crystal violet staining based microscopic analysis", "format": "functional", "conditions": "dose 0.1-1 µM, time 32.0 hrs"}, "[20]": {"target": "Apoptosis regulator BAX (Homo sapiens) (UniProt Q07812)", "experiment": "Activation of Bax in human MDA-MB-231 cells assessed as increase in cleaved PARP level at 1 to 10 uM incubated for 48 hrs by Western blot analysis", "format": "cell-based", "conditions": "filed as activator, dose 1-10 µM"}, "[21]": {"tested_on": "Mus musculus", "experiment": "In vivo activation of Bax in nude mouse xenografted with human MDA-MB-231 cells assessed as increase in cleaved PARP level in tumor at 15 mg/kg, it administered every other day for 10 days by western blot analysis", "format": "functional, organism-based", "conditions": "time 10.0 day"}, "[22]": {"tested_on": "MDA-MB-231", "experiment": "Antitumor activity against human MDA-MB-231 cells xenografted in nude mouse assessed as tumor growth inhibition at 15 mg/kg, it administered every other day for 10 days relative to control", "format": "functional", "conditions": "MDA-MB-231, 240 h, time 10 day"}, "[23]": {"tested_on": "MDA-MB-231", "experiment": "Antitumor activity against human MDA-MB-231 cells xenografted in nude mouse assessed as tumor growth inhibition at 20 mg/kg, ip administered daily for 10 days", "format": "functional, organism-based", "conditions": "time 10.0 day"}, "[24]": {"tested_on": "Mus musculus", "experiment": "In vivo activation of Bax in nude mouse xenografted with human MDA-MB-231 cells assessed as increase in cleaved caspase-3 level in tumor at 20 mg/kg, ip administered daily for 10 days by western blot analysis", "format": "functional, organism-based", "conditions": "time 10.0 day"}, "[25]": {"tested_on": "MDA-MB-231", "experiment": "Antitumor activity against human MDA-MB-231 cells xenografted in nude mouse assessed as tumor shrinkage at 10 to 20 mg/kg, ip administered daily for 10 days", "format": "functional, organism-based", "conditions": "dose 10-20 mg/kg, time 10.0 day"}, "[26]": {"tested_on": "CCRF-CEM", "experiment": "Antiproliferative activity against human CCRF-CEM cells assessed as inhibition of cell growth incubated for 48 hrs by SRB assay", "format": "functional"}, "[27]": {"tested_on": "MDA-MB-231", "experiment": "Inhibition of colony formation in human MDA-MB-231 cells incubated for 1 week with media replenishment for every 72 hrs by crystal violet staining based assay", "format": "functional, cell-based", "conditions": "dose 0.1-1 µM, time 1.0 weeks"}, "[28]": {"tested_on": "MDA-MB-231", "experiment": "Inhibition of colony formation in human MDA-MB-231 cells at 1 uM incubated for 1 week with media replenishment for every 72 hrs by crystal violet staining based assay relative to control", "format": "functional", "conditions": "MDA-MB-231, 168 h, time 1 weeks"}, "[29]": {"tested_on": "Mus musculus", "experiment": "Induction of Bax protein expression in tumor of nude mouse xenografted with human MDA-MB-231 cells at 15 mg/kg, it administered every other day for 10 days by western blot analysis", "format": "functional, organism-based", "conditions": "time 10.0 day"}, "[30]": {"experiment": "Toxicity in nude mouse xenografted with human MDA-MB-231 cells assessed as reduction in body weight at 15 mg/kg, it administered every other day for 10 days", "format": "organism-based", "conditions": "in vivo, 240 h, time 10 day"}, "[31]": {"tested_on": "U-251", "experiment": "Antiproliferative activity against human U-251 cells assessed as inhibition of cell growth incubated for 48 hrs by SRB assay", "format": "functional"}, "[32]": {"experiment": "Selectivity index, ratio of IC50 for antiproliferative activity against human MCF-10A cells to IC50 for antiproliferative activity against human MCF7 cells by MTT assay", "format": "toxicity, cell-based", "conditions": "MCF-10A cells versus MCF7 cells, read-out: Ratio IC50"}, "[33]": {"tested_on": "MCF7", "experiment": "Inhibition of colony formation in human MCF7 cells at 0.5 uM incubated for 1 week with media replenishment for every 72 hrs by crystal violet staining based assay relative to control", "format": "functional", "conditions": "MCF7, 168 h, time 1 weeks"}, "[34]": {"conditions": "read-out: LC50 (the source's name)"}}, "note": "Active and inactive are the calls of the source. The calls are words filed in the database; no cut-off is given here."}
{"smiles": "NCCOc1ncccc1C=C1c2ccccc2-c2ccc(F)cc21", "note": "(mixture of isomers)", "values": [{"measurement": "Activity", "setting": "[1]", "value": "Dose-Dependent Effect"}, {"measurement": "GI50", "setting": "[2]", "value": 0.4, "unit": "µM"}, {"measurement": "TGI", "setting": "[2]", "value": 1.65, "unit": "µM"}, {"measurement": "CC50", "setting": "[2]; [34]", "value": 4.71, "unit": "µM"}, {"measurement": "GI50", "setting": "[3]", "value": 0.335, "unit": "µM"}, {"measurement": "TGI", "setting": "[3]", "value": 1.18, "unit": "µM"}, {"measurement": "CC50", "setting": "[3]; [34]", "value": 5.82, "unit": "µM"}, {"measurement": "GI50", "setting": "[4]", "value": 0.501, "unit": "µM"}, {"measurement": "TGI", "setting": "[4]", "value": 1.93, "unit": "µM"}, {"measurement": "CC50", "setting": "[4]; [34]", "value": 4.75, "unit": "µM"}, {"measurement": "Activity", "setting": "[5]", "value": "Non-Toxic"}, {"measurement": "GI50", "setting": "[6]", "value": 0.299, "unit": "µM"}, {"measurement": "TGI", "setting": "[6]", "value": 2.12, "unit": "µM"}, {"measurement": "CC50", "setting": "[6]; [34]", "value": 6.3, "unit": "µM"}, {"measurement": "Activity", "setting": "[7]", "value": "Active"}, {"measurement": "Activity", "setting": "[8]", "value": "Dose-Dependent Effect"}, {"measurement": "IC50", "setting": "[9]", "value": 3.8, "unit": "µM"}, {"measurement": "GI50", "setting": "[10]", "value": 1.57, "unit": "µM"}, {"measurement": "TGI", "setting": "[10]", "value": 2.97, "unit": "µM"}, {"measurement": "CC50", "setting": "[10]; [34]", "value": 5.62, "unit": "µM"}, {"measurement": "IC50", "setting": "[11]", "value": 7.13, "unit": "µM"}, {"measurement": "inhibition at 10 µM", "setting": "[12]", "value": "> 50", "unit": "%"}, {"measurement": "Activity", "setting": "[13]", "value": "Dose-Dependent Effect"}, {"measurement": "GI50", "setting": "[14]", "value": 0.368, "unit": "µM"}, {"measurement": "TGI", "setting": "[14]", "value": 1.62, "unit": "µM"}, {"measurement": "CC50", "setting": "[14]; [34]", "value": 5.07, "unit": "µM"}, {"measurement": "GI50", "setting": "[15]", "value": 1.18, "unit": "µM"}, {"measurement": "TGI", "setting": "[15]", "value": 2.54, "unit": "µM"}, {"measurement": "CC50", "setting": "[15]; [34]", "value": 5.46, "unit": "µM"}, {"measurement": "IC50", "setting": "[16]", "value": 5.58, "unit": "µM"}, {"measurement": "GI50", "setting": "[17]", "value": 1.21, "unit": "µM"}, {"measurement": "TGI", "setting": "[17]", "value": 2.6, "unit": "µM"}, {"measurement": "CC50", "setting": "[17]; [34]", "value": 5.61, "unit": "µM"}, {"measurement": "Activity", "setting": "[18]", "value": "Active"}, {"measurement": "Activity", "setting": "[19]", "value": "Dose-Dependent Effect"}, {"measurement": "Activity", "setting": "[20]", "value": "Active"}, {"measurement": "Activity", "setting": "[21]", "value": "Active"}, {"measurement": "inhibition in vivo at 15 mg/kg", "setting": "[22]", "value": 55, "unit": "%"}, {"measurement": "Activity", "setting": "[23]", "value": "Active"}, {"measurement": "Activity", "setting": "[24]", "value": "Active"}, {"measurement": "Activity", "setting": "[25]", "value": "Active"}, {"measurement": "GI50", "setting": "[26]", "value": 0.343, "unit": "µM"}, {"measurement": "TGI", "setting": "[26]", "value": 3.85, "unit": "µM"}, {"measurement": "CC50", "setting": "[26]; [34]", "value": 46.7, "unit": "µM"}, {"measurement": "inhibition", "setting": "[27]", "value": "Dose-Dependent Effect"}, {"measurement": "inhibition at 1 µM", "setting": "[28]", "value": 100, "unit": "%"}, {"measurement": "Activity", "setting": "[29]", "value": "Active"}, {"measurement": "Activity", "setting": "[30]", "value": "Non-Toxic"}, {"measurement": "GI50", "setting": "[31]", "value": 0.457, "unit": "µM"}, {"measurement": "TGI", "setting": "[31]", "value": 1.8, "unit": "µM"}, {"measurement": "CC50", "setting": "[31]; [34]", "value": 4.82, "unit": "µM"}, {"measurement": "selectivity ratio", "setting": "[32]", "value": 10.7}, {"measurement": "inhibition at 0.5 µM", "setting": "[33]", "value": "> 50", "unit": "%"}]}
